Measurements from US12024510B2, “Pyrazolopyridine-diamides, their use as insecticide and processes for preparing the same” (PI INDUSTRIES LTD., priority 2017, dated 2024).

Columns and labels:
Format in all cases: in vivo
Helicoverpa armigera = Helicoverpa armigera diet incorporation method; details: third instar larvae, dead and moribund combined, 96 h after release
Outline: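 Third-instar larvae, starved, were placed singly on diet pieces containing test dispersion (bead-milled in surfactant, particles under 2 μm, 500 ppm stock then diluted). Trays kept at 25° C. and 70% RH; mortality counted at 96 h, moribund larvae counted with dead.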

Plutella xylostella = experiment: whole plant or invertebrate; details: foliar, cabbage leaf dip, second instar larvae, dead and moribund combined, 72 h after release
Outline: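 Leaf-dip bioassay: second-instar larvae, singly, fed on cabbage leaves dipped 10 s in test dispersion (bead-milled, diluted with 0.01% Triton-X to test concentration) and dried 20 min. Held at 25 °C, 70% RH; % mortality counts dead and moribund at 72 h.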

Spodoptera litura = Spodoptera litura diet incorporation method; details: third instar larvae, dead and moribund combined, 96 h after release
Experimental: Test Solutions were Prepared According to the Procedure Described Herein Below (500 PPM):
• 1. Eppendorf Vortex mixer (ThermoMixer C) and 1.5 mL Eppendorf tubes • 2. Zirconia (Zirconium-Yttrium) beads having diameter of 0.8 to 1.0 mm • 3. Microscope • 4. Beaker 100 mL • 5. Micro-pipette Reagents: • 1. Surfactant Solution • 2. De-mineralized (DM) Water • 1. Weigh 10 mg of the compound of the present invention to be tested in an Eppendorf Tube. • 2. Add 200 mg of the Surfactant Solution into the tube. • 3. Add 600 mg of Zirconia beads into the above mixture. • 4. Fix the tube in Eppendorf Vortex mixer and start vortexing at 2000 rpm. • 5. Mix on Vortex mixer for 30 minutes. After 30 minutes, observe the sample over a microscope at 400× resolution. • 6. If the Maximum particle size is more than 5 μm or average particle size is more than 2 μm or the particle size distribution is uneven, continue vortexing for another 30 minutes and again check the particle size using the microscope. Continue till the average particle size is below 2 microns. • 7. When the required particle size is achieved, add 1.0 mL DM water into the tube, close the cap, shake the tube thoroughly and transfer the contents, along with the beads, into a beaker. • 8. To rinse the tube, add another 1.0 mL of DM water into the tube, close the cap, shake well and transfer this into the same beaker. • 9. Repeat Step no. 8 one more time so that the tube is rinsed well and the compound of the present invention to be tested is transferred to the beaker. • 10. Add 16.8 mL of DM water into the beaker and stir well. • 11. The homogeneous dispersion can then be decanted into a glass vial, immediately, to separate the Zirconia beads. • 12. Immediately use this sample for biological testing. • 13. Further dilutions can be prepared by taking appropriate quantity of the aliquot of Step 10, immediately after stirring, and diluting as per requirement. The sample solution must be well mixed just before biological testing.
Diet incorporation method was used, in which semi-synthetic diet was incorporated into the test solution when the temperature is approximately 50° C. in the bioassay containers and stirred thoroughly for properly mixing and then was allowed to cool for 30 min. The solidified diet was cut into equal pieces, and then each piece was transferred in one cell in Bio-assay trays. A single third instar starved larva was released into each of these cells of bioassay trays and the tray was covered with the lid. The bio-assay trays were kept under laboratory conditions at a temperature of 25° C. and Relative Humidity of 70%. Observations on dead, moribund and live larvae were recorded at 96 h after the release of larvae. Percent mortality was calculated by combining dead and moribund larvae. The following compound numbers

Measured: mortality at 300 ppm

CCCNC(=O)c1c(NC(=O)c2cc(Br)nn2-c2ncccc2Cl)c(C)cc2ccnn12 [Compound 21, 6-(3-bromo-1-(3-chloropyridin-2-yl)-1H-pyrazole-5-carboxamido)-5-methyl-N-propylpyrazolo[1,5-a]pyridine-7-carboxamide]
> 70%: all assays above

COCC(C)(C)NC(=O)c1c(NC(=O)c2cc(Br)nn2-c2ncccc2Cl)c(C)cc2ccnn12 [Compound 174, 6-(3-bromo-1-(3-chloropyridin-2-yl)-1H-pyrazole-5-carboxamido)-N-(1-methoxy-2-methylpropan-2-yl)-5-methylpyrazolo[1,5-a]pyridine-7-carboxamide]
> 70%: all assays above

CNC(=O)c1c(NC(=O)c2cc(Br)nn2-c2ncccc2Cl)c(Br)cc2ccnn12 [Compound 51, 5-bromo-6-(3-bromo-1-(3-chloropyridin-2-yl)-1H-pyrazole-5-carboxamido)-N-methylpyrazolo[1,5-a]pyridine-7-carboxamide]
> 70%: all assays above

Cc1cc2ccnn2c(C(=O)NCC2CC2)c1NC(=O)c1cc(OC2CSC2)nn1-c1ncccc1Cl [Compound 72, 6-(1-(3-chloropyridin-2-yl)-3-(thietan-3-yloxy)-1H-pyrazole-5-carboxamido)-N-(cyclopropylmethyl)-5-methylpyrazolo[1,5-a]pyridine-7-carboxamide]
> 70%: all assays above

Cc1cc2ccnn2c(C(=O)NC(C)(C)C)c1NC(=O)c1cc(C(F)(F)F)nn1-c1ncccc1Cl [Compound 58, N-(tert-butyl)-6-(1-(3-chloropyridin-2-yl)-3-(trifluoromethyl)-1H-pyrazole-5-carboxamido)-5-methylpyrazolo[1,5-a]pyridine-7-carboxamide]
> 70%: all assays above

CCNC(=O)c1c(NC(=O)c2cc(C(F)(F)F)nn2-c2ncccc2Cl)c(C)cc2ccnn12 [Compound 59, 6-(1-(3-chloropyridin-2-yl)-3-(trifluoromethyl)-1H-pyrazole-5-carboxamido)-N-ethyl-5-methylpyrazolo[1,5-a]pyridine-7-carboxamide]
> 70%: all assays above

Cc1cc2ccnn2c(C(=O)NCC#N)c1NC(=O)c1cc(Br)nn1-c1ncccc1Cl [Compound 28, 6-(3-bromo-1-(3-chloropyridin-2-yl)-1H-pyrazole-5-carboxamido)-N-(cyanomethyl)-5-methylpyrazolo[1,5-a]pyridine-7-carboxamide]
> 70%: all assays above

CCNC(=O)c1c(NC(=O)c2cc(Br)nn2-c2ncccc2Cl)ccc2ccnn12 [Compound 157, 6-(3-bromo-1-(3-chloropyridin-2-yl)-1H-pyrazole-5-carboxamido)-N-ethylpyrazolo[1,5-a]pyridine-7-carboxamide]
> 70%: all assays above

CCNC(=O)c1c(NC(=O)c2cc(OC)nn2-c2ncccc2Cl)c(C)cc2ccnn12 [Compound 31, 6-(1-(3-chloropyridin-2-yl)-3-methoxy-1H-pyrazole-5-carboxamido)-N-ethyl-5-methylpyrazolo[1,5-a]pyridine-7-carboxamide]
> 70%: all assays above

COc1cc(C(=O)Nc2c(C)cc3ccnn3c2C(=O)NC(C)(C)C)n(-c2ncccc2Cl)n1 [Compound 30, N-(tert-butyl)-6-(1-(3-chloropyridin-2-yl)-3-methoxy-1H-pyrazole-5-carboxamido)-5-methylpyrazolo[1,5-a]pyridine-7-carboxamide]
> 70%: all assays above

C#CCNC(=O)c1c(NC(=O)c2cc(Br)nn2-c2ncccc2Cl)c(Br)cc2ccnn12 [Compound 57, 5-bromo-6-(3-bromo-1-(3-chloropyridin-2-yl)-1H-pyrazole-5-carboxamido)-N-(prop-2-yn-1-yl)pyrazolo[1,5-a]pyridine-7-carboxamide]
> 70%: all assays above

CONC(=O)c1c(NC(=O)c2cc(OC)nn2-c2ncccc2Cl)c(C)cc2ccnn12 [Compound 42, 6-(1-(3-chloropyridin-2-yl)-3-methoxy-1H-pyrazole-5-carboxamido)-N-methoxy-5-methylpyrazolo[1,5-a]pyridine-7-carboxamide]
> 70%: all assays above

CSCCNC(=O)c1c(NC(=O)c2cc(Br)nn2-c2ncccc2Cl)c(C)cc2ccnn12 [Compound 37, 6-(3-bromo-1-(3-chloropyridin-2-yl)-1H-pyrazole-5-carboxamido)-5-methyl-N-(2-(methylthio)ethyl)pyrazolo[1,5-a]pyridine-7-carboxamide]
> 70%: all assays above

CCNC(=O)c1c(NC(=O)c2cc(Cn3nnc(C(F)(F)F)n3)nn2-c2ncccc2Cl)c(Cl)cc2ccnn12 [Compound 154, 5-chloro-6-(1-(3-chloropyridin-2-yl)-3-((5-(trifluoromethyl)-2H-tetrazol-2-yl)methyl)-1H-pyrazole-5-carboxamido)-N-ethylpyrazolo[1,5-a]pyridine-7-carboxamide]
> 70%: all assays above

CNC(=O)c1c(NC(=O)c2cc(Cn3nnc(C(F)(F)F)n3)nn2-c2ncccc2Cl)c(Cl)cc2ccnn12 [Compound 153, 5-chloro-6-(1-(3-chloropyridin-2-yl)-3-((5-(trifluoromethyl)-2H-tetrazol-2-yl)methyl)-1H-pyrazole-5-carboxamido)-N-methylpyrazolo[1,5-a]pyridine-7-carboxamide]
> 70%: all assays above

CNC(=O)c1c(NC(=O)c2cc(N3CC(F)(F)C3)nn2-c2ncccc2Cl)c(C)cc2ccnn12 [Compound 68, 6-(1-(3-chloropyridin-2-yl)-3-(3,3-difluoroazetidin-1-yl)-1H-pyrazole-5-carboxamido)-N,5-dimethylpyrazolo[1,5-a]pyridine-7-carboxamide]
> 70%: all assays above

Cc1cc2ccnn2c(C(=O)NCC2CC2)c1NC(=O)c1cc(OCC(F)(F)F)nn1-c1ncccc1Cl [Compound 14, 6-(1-(3-chloropyridin-2-yl)-3-(2,2,2-trifluoroethoxy)-1H-pyrazole-5-carboxamido)-N-(cyclopropylmethyl)-5-methylpyrazolo[1,5-a]pyridine-7-carboxamide]
> 70%: all assays above

Cc1cc2ccnn2c(C(=O)NCC2CC2)c1NC(=O)c1cc(N2CC(F)(F)C2)nn1-c1ncccc1Cl [Compound 67, 6-(1-(3-chloropyridin-2-yl)-3-(3,3-difluoroazetidin-1-yl)-1H-pyrazole-5-carboxamido)-N-(cyclopropylmethyl)-5-methylpyrazolo[1,5-a]pyridine-7-carboxamide]
> 70%: all assays above
